Patent US10086028B2, “Method for treating vascular inflammation, improving skin beauty and improving male sexual function using ginseng berry” (AMOREPACIFIC CORPORATION, priority 2007, dated 2018)

Legend:
[1] = system: melanocytes (MeI-Ab cells); assay: Inhibition of melanin generation in mouse melanocytes; assay type: cell-based, C57BL/6 mouse; settings: added for 3 consecutive days; sample 10 μg/mL
Experimental: Inhibition of melanin generation in mouse melanocytes was evaluated in order to confirm the effect of the ginseng berry extract of Example 1 of inhibiting melanin generation.
First, melanocytes (MeI-Ab cells) derived from C57BL/6 mouse [Dooley, T. P. et al, Skin Pharmacol., 7, pp. 188-200] were cultured in Dulbecco's modified Eagle's medium (DMEM) containing 10% FBS, 100 nM 2-O-tetradecanoylphorbol-13-acetate and 1 nM cholera toxin under the condition of 37° C., 5% CO2. The cultured MeI-Ab cells were separated using 0.25% trypsin-EDTA, and cultured on a 24-well plate to a concentration of 10^5 cells/well. Starting from day 2, the ginseng berry extract of Example 1 (1 μg/mL, 10 μg/mL and 100 μg/mL), the ginseng berry saponin concentrate of Example 2 (10 μg/mL), the ginseng root extract of Comparative Example 1 (10 μg/mL) or ginsenosides Rg1, Rg2, Rh1 or Re (10 μg/mL) was added for 3 consecutive days. Hydroquinone (10 μg/mL) was used as a positive control substance. Then, after removing the medium and washing with PBS, the cells were dissolved with 1 N sodium hydroxide. Absorbance was measured at 400 nm, and melanin generation inhibition ratio was calculated by Equation 3.

[2] = system: endothelial cells (HUVEC); assay: Increase of NO generation in endothelial cells (Test Example 12); assay type: cell-based
Experimental: Endothelial cells were adhered on a gelatin-coated 24-well plate, with a density of 2.5×10^4 cells/well. The cells were cultured for 12 hours using a growth medium. The endothelial cells were pre-treated for 12 hours, using the ginseng berry extract, the ginseng berry saponin concentrate or the ginseng root extract (Examples 1-2 and Comparative Example 1). Then, they, including a non-treated group, were treated with 10 μmol/L DAF-FM diacetate (Molecular Probe, Oreg.) at 37° C. for 30 minutes in an FBS-free M199 medium. Subsequently, the endothelial cells were washed 3 times with an FBS-free M199 medium, put in a parallel plate flow chamber, and stimulated with light isolated from a mercury lamp. Excitation wavelength was 488 nm. Fluorescence of 515 nm is emitted when DAF binds with NO.
Increase of generation of NO, which is known as an important signal transduction substance related with penile erection, in endothelial cells was observed after treating with the ginseng berry extract. Experiment was carried out in a manner substantially the same as that of Test Example 2, but L-arginine was treated together with the ginseng root extract of Comparative Example 1 and the ginseng berry extract of Example 1. […]

[3] = system: human HaCaT keratinocytes; assay: Antioxidative effect: removal of UV-generated ROS in HaCaT keratinocytes; assay type: cell-based; settings: ROS generated by UV in HaCaT; sample 10 μg/mL (Trolox given as (10))
Source text: Antioxidative effect of the ginseng berry extract was investigated by comparing the ability of removing reactive oxygen species (ROS) generated in human HaCaT keratinocytes by ultraviolet (UV) radiation.

type I procollagen = assay: Type I procollagen assay in human fibroblasts (ELISA); assay type: cell-based; settings: 3rd day, 10 ng/mL
Experimental: Human fibroblasts were cultured on a 12-well plate incubator to a concentration of 10^5 cells/well. Then, the medium was replaced by one including the ginseng berry extract of Example 1 (1 μg/mL and 10 μg/mL), the ginseng berry saponin concentrate of Example 2 (10 μg/mL), the ginseng root extract of Comparative Example 1 (10 μg/mL) or ginsenosides Rg1, Rg2, Rh1 or Re (10 μg/mL). 10 ng/mL transforming growth factor β (TGF-β) was used as a positive control substance.
On the 3rd day of culturing, the cells were harvested and the quantity of produced type I procollagen was analyzed using ELISA. The result was calculated as a relative value with respect to the negative control group, which was not treated with a test substance.

[4] = system: matrix metalloproteinase I (MMP-1); assay: Inhibition of UVB-induced MMP-1 expression in human fibroblasts (ELISA); assay type: cell-based; settings: UVB 40 mJ/cm^2, 2nd day, relative to UV control; 10 ng/mL
Experimental: Human fibroblasts were cultured on a 12-well plate incubator to a concentration of 10^5 cells/well. Then, after irradiating UVB at 40 mJ/cm^2, the medium was replaced by one including the ginseng berry extract of Example 1 (1 μg/mL and 10 μg/mL), the ginseng berry saponin concentrate of Example 2 (10 μg/mL), the ginseng root extract of Comparative Example 1 (10 μg/mL) or ginsenosides Rg1, Rg2, Rh1 or Re (10 μg/mL). 10 ng/mL TGF-β was used as a positive control substance. On the 2nd day of culturing, the cells were harvested and the quantity of produced matrix metalloproteinase I (MMP-1) was analyzed using ELISA. The result was calculated as a relative value with respect to the control group, which was irradiated with UV without treating with a test substance.

Oc1ccc(O)cc1 [Hydroquinone]
Melanin generation inhibition ratio (%) [1]: 39%

N=C(N)NCCC[C@H](N)C(=O)O [L-Arginine]
increased NO generation with respect to the negative control group ([2]; 250 μM): about 2.7 times
increased NO generation with respect to the negative control group ([2]; 500 μM): ~5.5 times

Cc1c(C)c2c(c(C)c1O)CCC(C)(C(=O)O)O2 (stereo not drawn) [Trolox]
Antioxidative effect (%) [3]: 33%

transforming growth factor β [TGF-β]
Procollagen activity relative to negative control (%) (type I procollagen): 145%
MMP-1 expression (%) [4]: 65%
